Source: paper PMC10192158 (Cancer Chemotherapy and Pharmacology, 2023)
pIC50, pKd: −log10 of the molar value. Values joined by “and” are separate entries in the source; they are usually repeats but may differ in a detail not shown here. Identical values can stand only once. Like-named read-outs stand apart in the source and are kept apart here. Blank lines part the entries; values can stand above or below the compound they belong to.

Columns and labels:
VEGFR2 [1] = conditions: cited from earlier work
panel of 270 kinases [2] = test: Selectivity across panel of 270 kinases (residual activity radar chart, kinome tree)
VEGFR2 [3] = biological target: T1, VEGFR2 (Homo sapiens, UniProt P35968); test: Surface plasmon resonance (Biacore T200) binding of rivoceranib to biotinylated VEGFR2 cytoplasmic domain
T1 sequence (P35968 790-1356): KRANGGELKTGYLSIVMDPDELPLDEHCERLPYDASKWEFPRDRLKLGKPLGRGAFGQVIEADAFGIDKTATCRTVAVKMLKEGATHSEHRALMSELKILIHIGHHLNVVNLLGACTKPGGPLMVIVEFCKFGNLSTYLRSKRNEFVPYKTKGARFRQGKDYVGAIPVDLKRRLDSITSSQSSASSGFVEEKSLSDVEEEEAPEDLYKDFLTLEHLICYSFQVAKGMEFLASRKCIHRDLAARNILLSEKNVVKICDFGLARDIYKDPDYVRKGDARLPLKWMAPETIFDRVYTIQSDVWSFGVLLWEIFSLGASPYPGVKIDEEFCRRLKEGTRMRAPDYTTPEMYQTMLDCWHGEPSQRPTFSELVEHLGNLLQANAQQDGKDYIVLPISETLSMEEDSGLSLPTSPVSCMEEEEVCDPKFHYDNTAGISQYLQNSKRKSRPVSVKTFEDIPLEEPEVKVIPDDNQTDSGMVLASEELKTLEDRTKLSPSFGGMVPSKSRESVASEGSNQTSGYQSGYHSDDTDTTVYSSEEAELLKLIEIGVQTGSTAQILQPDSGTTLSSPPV

VEGFR2 [4] = biological target: T1, VEGFR2; test: VEGFR2 kinase activity, off-chip mobility shift assay (MSA), dose-response
VEGFR2/KDR = biological target: T2, VEGFR2/KDR (Homo sapiens, UniProt P35968); test: Kinase panel enzyme activity assay (MSA or IMAP), percent inhibition at fixed concentration; assay type: biochemical
T2 construct: cytoplasmic domain of VEGFR2, encompassing amino acid residue 790 to 1356 (C-terminus); purchased Carna Biosciences, Inc. (Kobe, Japan); host or cells: insect cells
T2 sequence (P35968 790-1356): as above
Description: (§1) Kinase assays were performed to evaluate inhibitor activity on VEGFR2 and other kinases using either mobility shift assays (MSA) or immobilized metal ion affinity particle (IMAP) assays at Carna Biosciences, Inc (Kobe, Japan). The panel of kinases assayed comprises all wild-type kinases available for profiling at Carna Biosciences, Inc. For VEGFR2, the same cytoplasmic domain was used as in the SPR binding assay.
(§2) Off-chip MSA was performed by preparing a 4 × substrate/ATP/metal solution using kit buffer (20 mM HEPES, 0.01% Triton X-100, 5 mM DTT, pH 7.5), and a 2 × kinase solution was prepared in assay buffer (20 mM HEPES, 0.01% TritonX-100, 1 mM DTT, pH 7.5). […] A 4 × compound solution and the 4 × substrate/ATP/metal solution, and 2 × kinase solution were mixed and incubated in a 384-well microplate at room temperature for 1 or 5 h, dependent on the kinase. Termination Buffer (QuickScout Screening Assist MSA; Carna Biosciences) was added to the well, and the reaction mixture was applied to the LabChip™ system (Perkin Elmer) to separate and quantitate the product and substrate peptide peaks. The kinase reaction was measured using the product ratio calculated from the peak heights of the product (P) and substrate (S) peptides: [P/(P + S)].
(§3) For the IMAP assays, a 4 × substrate/ATP/metal solution and 2 × kinase solution were prepared using assay buffer (20 mM HEPES, 0.01% Tween 20, 2 mM DTT, pH 7.4). ATP concentrations in the solution were within twofold of the affinity for ATP (KM,ATP) for each individual kinase. Then, the 4 × compound solution, 4 × substrate/ATP/metal solution, and 2 × kinase solution were mixed and incubated in a single well of a polystyrene 384-well black microplate. After incubating for 1 h at room temperature, IMAP-binding reagent (IMAP Screening Express kit; Molecular Devices) was added to the well and incubated for 30 min. The kinase reaction in each well was measured via fluorescence polarization at excitation of 485 nm and emission of 530 nm.
(§4) IC50 values were calculated by fitting a 4-parameter logistic curve to the percentage inhibition values at the tested concentrations.
(§5) To compare the selectivity of rivoceranib and the 10 reference inhibitors, we performed either IMAP assays or off-chip MSA to assess the residual kinase activity of a panel of 270 kinases in the presence of 160 nM or 1600 nM rivoceranib or 1000 nM of reference inhibitor. The 270 kinases represent a broad representation of the more than 500 kinases encoded by the human genome.

KIT = biological target: T3, KIT (Homo sapiens, UniProt P10721); test: as above; assay type: biochemical
T3 construct: purchased Carna Biosciences, Inc. (Kobe, Japan)
T3 sequence (P10721 26-976): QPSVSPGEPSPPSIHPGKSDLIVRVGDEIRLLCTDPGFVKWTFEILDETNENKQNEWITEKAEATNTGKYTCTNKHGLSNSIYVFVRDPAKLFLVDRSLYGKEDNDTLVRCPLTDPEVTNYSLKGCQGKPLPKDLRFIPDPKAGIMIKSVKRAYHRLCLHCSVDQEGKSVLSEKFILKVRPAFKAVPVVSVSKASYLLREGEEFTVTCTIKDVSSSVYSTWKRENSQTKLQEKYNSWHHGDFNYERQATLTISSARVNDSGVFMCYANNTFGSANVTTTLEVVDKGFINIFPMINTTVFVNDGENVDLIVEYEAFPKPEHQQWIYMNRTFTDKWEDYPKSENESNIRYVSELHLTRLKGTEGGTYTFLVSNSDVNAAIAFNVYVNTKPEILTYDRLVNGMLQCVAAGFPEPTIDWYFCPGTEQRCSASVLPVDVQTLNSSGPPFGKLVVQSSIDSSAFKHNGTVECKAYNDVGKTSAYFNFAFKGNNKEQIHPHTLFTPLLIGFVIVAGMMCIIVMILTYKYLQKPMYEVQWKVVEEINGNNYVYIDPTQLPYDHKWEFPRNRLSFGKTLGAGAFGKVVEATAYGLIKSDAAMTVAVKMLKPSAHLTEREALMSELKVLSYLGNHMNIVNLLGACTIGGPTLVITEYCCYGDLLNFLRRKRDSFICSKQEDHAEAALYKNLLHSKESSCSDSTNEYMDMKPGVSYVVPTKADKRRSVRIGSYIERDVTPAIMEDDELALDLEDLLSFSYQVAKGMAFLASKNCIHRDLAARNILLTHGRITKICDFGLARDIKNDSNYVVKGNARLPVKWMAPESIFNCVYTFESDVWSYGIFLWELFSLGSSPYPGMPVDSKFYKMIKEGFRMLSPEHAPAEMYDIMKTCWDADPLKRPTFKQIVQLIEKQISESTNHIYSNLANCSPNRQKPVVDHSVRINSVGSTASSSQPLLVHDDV
Description: as §1, §2, §3, §4, §5

PDGFRβ = biological target: T4, PDGFRβ (Homo sapiens, UniProt P09619); test: as above; assay type: biochemical
T4 construct: purchased Carna Biosciences, Inc. (Kobe, Japan)
Description: as §1, §2, §3, §4, §5

VEGFR1/FLT1 = biological target: T5, VEGFR1/FLT1 (Homo sapiens, UniProt P17948); test: as above; assay type: biochemical
T5 construct: purchased Carna Biosciences, Inc. (Kobe, Japan)
T5 sequence (P17948 27-1338): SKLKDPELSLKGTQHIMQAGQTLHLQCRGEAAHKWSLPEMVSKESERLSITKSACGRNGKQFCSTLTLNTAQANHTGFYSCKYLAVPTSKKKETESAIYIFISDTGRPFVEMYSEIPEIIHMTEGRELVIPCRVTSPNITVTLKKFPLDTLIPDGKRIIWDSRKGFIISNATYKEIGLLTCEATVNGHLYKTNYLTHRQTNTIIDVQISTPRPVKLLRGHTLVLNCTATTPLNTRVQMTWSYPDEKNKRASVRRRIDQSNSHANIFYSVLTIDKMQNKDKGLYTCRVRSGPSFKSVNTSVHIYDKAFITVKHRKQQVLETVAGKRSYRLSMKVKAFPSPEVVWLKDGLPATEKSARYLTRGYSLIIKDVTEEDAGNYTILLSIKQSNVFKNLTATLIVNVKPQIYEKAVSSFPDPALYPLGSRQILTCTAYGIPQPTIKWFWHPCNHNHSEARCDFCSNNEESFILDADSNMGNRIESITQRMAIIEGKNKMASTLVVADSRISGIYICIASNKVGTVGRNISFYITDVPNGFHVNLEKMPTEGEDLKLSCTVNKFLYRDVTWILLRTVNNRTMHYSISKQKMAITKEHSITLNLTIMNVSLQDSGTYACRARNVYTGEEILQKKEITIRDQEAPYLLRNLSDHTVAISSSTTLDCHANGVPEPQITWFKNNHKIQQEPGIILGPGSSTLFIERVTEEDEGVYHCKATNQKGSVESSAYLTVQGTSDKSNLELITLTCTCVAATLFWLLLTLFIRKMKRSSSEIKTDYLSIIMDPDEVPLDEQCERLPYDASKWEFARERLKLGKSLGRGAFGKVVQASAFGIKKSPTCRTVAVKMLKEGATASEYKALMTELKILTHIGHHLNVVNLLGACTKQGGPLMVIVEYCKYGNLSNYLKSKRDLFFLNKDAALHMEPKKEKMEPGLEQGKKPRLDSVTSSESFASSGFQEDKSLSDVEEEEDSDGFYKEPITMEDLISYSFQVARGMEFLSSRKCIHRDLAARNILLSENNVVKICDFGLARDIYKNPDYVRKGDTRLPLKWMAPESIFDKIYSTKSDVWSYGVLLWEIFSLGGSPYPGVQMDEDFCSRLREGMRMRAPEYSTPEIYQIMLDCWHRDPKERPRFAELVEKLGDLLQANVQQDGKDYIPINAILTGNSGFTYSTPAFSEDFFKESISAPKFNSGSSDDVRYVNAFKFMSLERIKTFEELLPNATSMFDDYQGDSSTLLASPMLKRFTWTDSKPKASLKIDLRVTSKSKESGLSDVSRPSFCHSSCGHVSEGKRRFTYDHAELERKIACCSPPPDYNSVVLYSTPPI
Description: as §1, §2, §3, §4, §5

VEGFR3/FLT4 = biological target: T6, VEGFR3/FLT4 (Homo sapiens, UniProt P35916); test: as above; assay type: biochemical
T6 construct: purchased Carna Biosciences, Inc. (Kobe, Japan)
T6 sequence (P35916 25-1363): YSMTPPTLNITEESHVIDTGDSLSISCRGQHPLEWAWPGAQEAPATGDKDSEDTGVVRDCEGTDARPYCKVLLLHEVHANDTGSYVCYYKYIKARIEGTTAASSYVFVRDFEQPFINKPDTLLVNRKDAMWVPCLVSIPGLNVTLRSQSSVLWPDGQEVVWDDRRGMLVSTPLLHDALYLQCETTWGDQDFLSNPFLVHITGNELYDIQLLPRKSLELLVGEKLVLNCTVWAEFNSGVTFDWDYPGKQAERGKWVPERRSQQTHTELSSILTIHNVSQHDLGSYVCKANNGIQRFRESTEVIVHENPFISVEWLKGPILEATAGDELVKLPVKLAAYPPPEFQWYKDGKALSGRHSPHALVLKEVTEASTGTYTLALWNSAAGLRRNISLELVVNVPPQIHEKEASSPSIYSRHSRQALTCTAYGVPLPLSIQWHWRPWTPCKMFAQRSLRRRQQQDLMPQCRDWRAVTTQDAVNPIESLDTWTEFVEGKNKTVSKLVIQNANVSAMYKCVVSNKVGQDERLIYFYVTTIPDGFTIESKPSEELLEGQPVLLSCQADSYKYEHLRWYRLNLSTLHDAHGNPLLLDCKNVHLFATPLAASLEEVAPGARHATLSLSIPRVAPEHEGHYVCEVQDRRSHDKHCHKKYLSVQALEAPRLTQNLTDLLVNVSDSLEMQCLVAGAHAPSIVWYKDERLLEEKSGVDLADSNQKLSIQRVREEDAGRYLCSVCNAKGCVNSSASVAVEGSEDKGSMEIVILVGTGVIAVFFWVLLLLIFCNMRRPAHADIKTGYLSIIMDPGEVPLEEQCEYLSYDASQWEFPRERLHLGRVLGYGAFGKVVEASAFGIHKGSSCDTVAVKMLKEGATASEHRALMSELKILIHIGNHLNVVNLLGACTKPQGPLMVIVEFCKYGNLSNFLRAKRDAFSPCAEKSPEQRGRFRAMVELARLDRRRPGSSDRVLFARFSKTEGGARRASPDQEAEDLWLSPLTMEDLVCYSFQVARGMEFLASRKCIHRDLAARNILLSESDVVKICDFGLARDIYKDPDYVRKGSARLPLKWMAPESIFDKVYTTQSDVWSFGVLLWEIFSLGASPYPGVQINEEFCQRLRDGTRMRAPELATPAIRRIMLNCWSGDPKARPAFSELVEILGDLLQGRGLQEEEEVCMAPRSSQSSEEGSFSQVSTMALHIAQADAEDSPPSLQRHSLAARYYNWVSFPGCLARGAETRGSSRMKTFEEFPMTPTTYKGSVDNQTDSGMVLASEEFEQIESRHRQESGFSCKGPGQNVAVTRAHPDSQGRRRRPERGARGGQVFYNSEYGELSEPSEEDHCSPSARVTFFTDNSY
Description: as §1, §2, §3, §4, §5

RET = biological target: T7, RET (Homo sapiens, UniProt P07949); test: as above; assay type: biochemical
T7 construct: purchased Carna Biosciences, Inc. (Kobe, Japan)
Description: as §1, §2, §3, §4, §5

panel of 270 kinases [5] = test system: panel of 270 kinases; parameters: method as in PMID 24651269, PMID 30381447; conditions: 1000 nM reference inhibitor, compared among all inhibitors profiled; cited from earlier work
[6] = 1000 nM reference inhibitor, panel of 270 kinases
[7] = SPR, individual replicates 1a, 1b, 2a, 2b

Compound: COc1cc2nccc(Oc3ccc(NC(=O)NC4CC4)c(Cl)c3)c2cc1C(N)=O [lenvatinib]
pIC50 (VEGFR2 [1]; read-out: Reported IC50 values (VEGFR2), published literature, ref Brody T., 2018): 8.40
Number of kinases inhibited by 50% or more (panel of 270 kinases [2]; [6]): 31

Compound: CNC(=O)c1cc(Oc2ccc(NC(=O)Nc3ccc(Cl)c(C(F)(F)F)c3)c(F)c2)ccn1 [regorafenib]
pIC50 (VEGFR2 [1]; read-out: Reported IC50 values (VEGFR2), published literature, ref Wilhelm SM et al., Int J Cancer. 2011): 8.40

pKd (VEGFR2 [3]; KD (binding affinity, KD = kd/ka), SPR, single-cycle kinetics, 22 °C, 1:1 model, based on four replicates): 8.68 and 8.70 and ~8.70
pKd (VEGFR2 [3]; KD, SPR, individual replicates 1a, 1b, 2a, 2b): 8.51 and 8.74 and 9.00 and 8.48
kd (VEGFR2 [3]; SPR, geometric average of four replicates): 0.000807 s⁻¹
kon (VEGFR2 [3]; read-out: ka, SPR, geometric average of four replicates): 387000 M⁻¹ s⁻¹
pIC50 (VEGFR2 [4]): 7.80
Overall residual kinase activity across the panel of kinases (panel of 270 kinases [2]; 160 nM and 1600 nM rivoceranib, compared among all inhibitors profiled): the greatest residual kinase activity
Percent inhibition (VEGFR2/KDR; rivoceranib 160 nM): 96.12%
inhibition at […] (VEGFR2/KDR; rivoceranib 160 nM): 96.1%
Percent inhibition (VEGFR2/KDR; rivoceranib 1600 nM): 100.79%
inhibition at […] (VEGFR2/KDR; rivoceranib 1600 nM): 101%
inhibition at […] (KIT; rivoceranib 160 nM): 47.3%
Percent inhibition (KIT; rivoceranib 1600 nM): 92.58%
inhibition at […] (KIT; rivoceranib 1600 nM): 92.6%
Percent inhibition (PDGFRβ; rivoceranib 160 nM): 62.11%
inhibition at […] (PDGFRβ; rivoceranib 160 nM): 62.1%
inhibition at […] (PDGFRβ; rivoceranib 1600 nM): 94.8%
Percent inhibition (VEGFR1/FLT1; rivoceranib 160 nM): 93.27%
inhibition at […] (VEGFR1/FLT1; rivoceranib 160 nM): 93.3%
Percent inhibition (VEGFR1/FLT1; rivoceranib 1600 nM): 99.53%
inhibition at […] (VEGFR1/FLT1; rivoceranib 1600 nM): 99.5%
inhibition at […] (VEGFR3/FLT4; rivoceranib 160 nM): 92.9%
Percent inhibition (VEGFR3/FLT4; rivoceranib 1600 nM): 99.33%
inhibition at […] (VEGFR3/FLT4; rivoceranib 1600 nM): 99.3%
Percent inhibition (RET; rivoceranib 160 nM): 71.72%
inhibition at […] (RET; rivoceranib 160 nM): 71.7%
Percent inhibition (RET; rivoceranib 1600 nM): 97.89%
inhibition at […] (RET; rivoceranib 1600 nM): 97.9%
Compound: N#CC1(c2ccc(NC(=O)c3cccnc3NCc3ccncc3)cc2)CCCC1 [rivoceranib]
ka (VEGFR2 [3]; [7]): 303000 M⁻¹ s⁻¹ and 253000 M⁻¹ s⁻¹ and 445000 M⁻¹ s⁻¹ and 659000 M⁻¹ s⁻¹
kd (VEGFR2 [3]; [7]): 0.000775 s⁻¹ and 0.000557 s⁻¹ and 0.000445 s⁻¹ and 0.0022 s⁻¹
pIC50 (VEGFR2 [1]; read-out: IC50 for VEGFR2 kinase inhibition in a previous study, ATP 10 µM): 9.00

Compound: CCN(CC)CCNC(=O)c1c(C)[nH]c(/C=C2\C(=O)Nc3ccc(F)cc32)c1C [sunitinib]
Number of additional kinases beyond VEGFR2 inhibited by > 50% (panel of 270 kinases [2]; [6]): 125
Overall residual kinase activity across the panel of kinases (panel of 270 kinases [5]): the least residual kinase activity

Compound: COc1cc2nccc(Oc3ccc(NC(=O)Nc4cc(C)on4)c(Cl)c3)c2cc1OC [tivozanib]
Number of additional kinases beyond VEGFR2 inhibited by > 50% (panel of 270 kinases [2]; [6]): more than 70
